Results reported in PMC4389225, “Triaminopyrimidine is a fast-killing and long-acting antimalarial clinical candidate” (Nature Communications, 2015).
Values joined by “and” are separate entries in the source; they are usually repeats but may differ in a detail not shown here. Equal entries are not always repeated. Where two headings read alike, the source gives them in different places.

Assays:
[1] = system: Dd2; test: SYBR green growth assay, Dd2 (parental); format: cell-based, P. falciparum; conditions: mean ± SD
Description: (§1) To eliminate overlapping mode of action with known targets, cross-resistance testing of representative TAPs against drug-resistant lines with well-characterized mutations in Pf dihydroorotate dehydrogenase, Pf heat-shock protein 90, Pf chloroquine resistance transporter[25] or Pf cytochrome b reduction site[26] was performed. […] Assays were carried out in 384-well format with three technical replicates within an assay day and biological replicates carried out on three different assay days to assign a final EC50.
(§2) A representative TAP (compound 6) was tested for its activity against a panel of P. falciparum strains known to harbour mutations conferring resistance to antimalarial agents under development. Artesunate and amodiaquine were included as additional control […]
(§3) Values are the means ± standard deviation derived from three independent assays performed

[2] = system: Dd2-DHODH; test: SYBR green growth assay, Dd2-DHODH mutant; format: cell-based, P. falciparum
Description: as §1, §2, §3

[3] = system: Dd2-HSP90; test: microbe, parasite or virus in culture; format: cell-based, P. falciparum
Description: as §1, §2, §3

[4] = system: Dd2-PfCRT; test: SYBR green growth assay, Dd2-PfCRT mutant; format: cell-based, P. falciparum
Description: as §1, §2, §3

[5] = system: Dd2-CYTbQi; test: SYBR green growth assay, Dd2-CYTbQi mutant; format: cell-based, P. falciparum
Description: as §1, §2, §3

[6] = system: Pf 7G8; test: microbe, parasite or virus in culture; format: cell-based; conditions: Plasmodium falciparum
Description: (§4) tested in duplicate from two independent experiments using a SYBR-Green based assay2.
(§5) (1 picture or pasted object on this page, not shown here)

[7] = system: Pf DD2; test: microbe, parasite or virus in culture; format: cell-based; conditions: Plasmodium falciparum
Description: as §4, §5

[8] = system: Pf K1; test: microbe, parasite or virus in culture; format: cell-based; conditions: Plasmodium falciparum
Description: as §4, §5

[9] = system: Pf NF54; test: microbe, parasite or virus in culture; format: cell-based; conditions: Plasmodium falciparum
Description: as §4, §5

[10] = system: Pf SB1; test: microbe, parasite or virus in culture; format: cell-based; conditions: Plasmodium falciparum
Description: as §4, §5

[11] = system: Pf W2; test: microbe, parasite or virus in culture; format: cell-based; conditions: Plasmodium falciparum
Description: as §4, §5

[12] = system: Dd2-6R F2 B5; test: SYBR green growth assay, Dd2-6R F2 B5; conditions: for IC50: Plasmodium falciparum, DD2
Description: (§7) The drug was then washed off and the parasites were allowed to recover in normal growth media.

[13] = system: Dd2-6R F2 C5; test: SYBR green growth assay, Dd2-6R F2 C5; conditions: Plasmodium falciparum
Description: as §7

[14] = system: Dd2-6R F2 D8; test: SYBR green growth assay, Dd2-6R F2 D8; conditions: Plasmodium falciparum
Description: as §7

[15] = system: Dd2-6R F4 D4; test: SYBR green growth assay, Dd2-6R F4 D4; conditions: Plasmodium falciparum
Description: as §7

[16] = system: Dd2-6R F4 G7; test: SYBR green growth assay, Dd2-6R F4 G7; conditions: Plasmodium falciparum
Description: as §7

[17] = system: Dd2 DHODH DSM265; test: [3H]-hypoxanthine incorporation assay, Dd2 DHODH DSM265 resistant; format: cell-based; conditions: Plasmodium falciparum
Description: (§6) Supplementary Table 3: Compound 9 and 12 retain their activity against Pf strains harbouring mutations to novel antimalarial agents in clinical development. Compound 9 and 12 were tested for their antiplasmodial activity against a panel of Pf strains known to harbour mutations conferring resistance to novel agents under clinical development. Parasite growth inhibition is measured using the [3H]-hypoxanthine incorporation assay. IC50s are established for each strain (n ≥2) and compared to the IC50 of Dd2 (standard pan-resistant […]

[18] = system: Dd2; test: [3H]-hypoxanthine incorporation assay, Dd2; format: cell-based, Plasmodium falciparum
Description: 9 and 12 were tested for their antiplasmodial activity against a panel of Pf strains known to harbour mutations conferring resistance to novel agents under clinical development. Parasite growth inhibition is measured using the [3H]-hypoxanthine incorporation assay. IC50s are established for each strain (n ≥2) and compared to the IC50 of Dd2 (standard pan-resistant

[19] = system: Dd2 bc-1 ELQ-300; test: [3H]-hypoxanthine incorporation assay, Dd2 bc-1 ELQ-300 resistant; format: cell-based, Plasmodium falciparum; conditions: Dd2 bc-1 ELQ-300; read-out: IC50
Description: as §6

[20] = system: Dd2 PfATP4 NITD609; test: [3H]-hypoxanthine incorporation assay, Dd2 PfATP4 NITD609 resistant; format: cell-based; conditions: Plasmodium falciparum
Description: as §6

[21] = molecular target: T1, hERG (Homo sapiens, UniProt Q12809); test: electrophysiology-based hERG assay using IonWorks HT (CHO cells); format: cell-based; conditions: hERG IC50
T1 construct: expressed in transfected cells; host or cells: CHO cells
T1 sequence (Q12809 whole entry): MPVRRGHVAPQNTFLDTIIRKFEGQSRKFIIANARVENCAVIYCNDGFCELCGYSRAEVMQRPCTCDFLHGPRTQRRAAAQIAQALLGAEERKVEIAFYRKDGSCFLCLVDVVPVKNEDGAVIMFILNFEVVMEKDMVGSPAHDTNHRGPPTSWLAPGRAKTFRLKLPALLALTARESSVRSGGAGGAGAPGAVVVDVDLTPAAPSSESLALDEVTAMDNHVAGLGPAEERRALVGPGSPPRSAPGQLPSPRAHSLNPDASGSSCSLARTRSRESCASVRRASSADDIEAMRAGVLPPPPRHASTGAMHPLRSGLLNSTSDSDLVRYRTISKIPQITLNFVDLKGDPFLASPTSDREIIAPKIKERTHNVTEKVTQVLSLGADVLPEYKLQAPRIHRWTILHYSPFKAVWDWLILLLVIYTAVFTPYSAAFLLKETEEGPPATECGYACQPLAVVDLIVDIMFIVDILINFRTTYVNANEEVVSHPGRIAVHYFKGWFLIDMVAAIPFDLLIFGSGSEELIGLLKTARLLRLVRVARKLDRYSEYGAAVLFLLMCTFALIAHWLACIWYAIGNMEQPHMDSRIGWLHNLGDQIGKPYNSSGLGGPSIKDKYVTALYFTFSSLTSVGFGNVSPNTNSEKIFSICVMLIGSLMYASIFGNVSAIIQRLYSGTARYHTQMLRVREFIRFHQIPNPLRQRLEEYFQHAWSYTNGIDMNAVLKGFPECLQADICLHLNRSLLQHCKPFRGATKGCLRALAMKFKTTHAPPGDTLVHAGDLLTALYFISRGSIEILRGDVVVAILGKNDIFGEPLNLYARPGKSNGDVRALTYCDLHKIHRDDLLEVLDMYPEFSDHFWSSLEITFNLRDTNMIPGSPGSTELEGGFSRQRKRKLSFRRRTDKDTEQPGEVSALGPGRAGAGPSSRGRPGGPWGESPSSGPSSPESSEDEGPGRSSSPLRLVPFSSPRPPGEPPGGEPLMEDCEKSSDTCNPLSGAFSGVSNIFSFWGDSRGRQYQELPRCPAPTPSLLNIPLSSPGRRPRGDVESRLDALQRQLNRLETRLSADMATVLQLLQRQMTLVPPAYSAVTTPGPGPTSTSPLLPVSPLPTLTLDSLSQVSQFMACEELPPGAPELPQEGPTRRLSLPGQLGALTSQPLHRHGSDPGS
Description: hERG IC50 was determined in an electrophysiology-based hERG assay using IonWorks HT (CHO cells) as described earlier.

[22] = molecular target: T2, acetylcholine esterase (AChE) (Homo sapiens, UniProt P22303); test: AChE enzyme activity assay (CEREP); format: biochemical; conditions: read-out: AChE IC50
T2 construct: purchased CEREP, France (external assay service) 0363
T2 sequence (P22303 32-614): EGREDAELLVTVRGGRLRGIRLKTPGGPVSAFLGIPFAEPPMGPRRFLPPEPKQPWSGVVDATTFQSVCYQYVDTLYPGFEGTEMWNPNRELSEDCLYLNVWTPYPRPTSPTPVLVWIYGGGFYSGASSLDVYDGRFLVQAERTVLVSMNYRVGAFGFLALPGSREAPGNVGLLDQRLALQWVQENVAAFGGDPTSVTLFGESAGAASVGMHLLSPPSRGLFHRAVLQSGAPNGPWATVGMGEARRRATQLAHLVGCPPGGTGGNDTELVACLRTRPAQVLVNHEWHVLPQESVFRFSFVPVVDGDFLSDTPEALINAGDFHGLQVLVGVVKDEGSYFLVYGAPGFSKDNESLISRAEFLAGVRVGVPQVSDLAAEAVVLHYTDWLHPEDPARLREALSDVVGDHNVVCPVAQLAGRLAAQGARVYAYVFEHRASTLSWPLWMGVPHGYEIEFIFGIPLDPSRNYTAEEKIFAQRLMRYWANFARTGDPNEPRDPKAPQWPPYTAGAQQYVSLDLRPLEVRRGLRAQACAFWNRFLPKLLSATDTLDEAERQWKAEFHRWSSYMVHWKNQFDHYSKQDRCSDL
Description: An in vitro pharmacological profiling panel was specifically designed for the detection of potential high- risk clinical adverse drug reactions. The panel comprised of 26 diverse targets (6 enzymes, 2 transporters, 9 G-protein-coupled receptors (GPCRs), 5 ion channels along with hERG, M2, alpha1A and AchE) and was conduced externally by CEREP, France […]. […] Detailed methodology for in vitro pharmacological profiling assays provided by CEREP can be found at http://www.cerep.fr, with specific reference to the AChE (cat. no. 0363), Muscarinic M1 receptor (cat. no. 0091) and Adrenergic α1A receptor (cat. no. 2338) assays. For enzyme and kinase assays, the results were expressed as a percent inhibition of control-specific activity obtained in the presence of the test compound. The IC50 values (concentration causing a half-maximal inhibition of control-specific activity) and Hill coefficients (nH) were determined by nonlinear regression analysis of the inhibition/concentration–response curves using Hill equation curve fitting as described earlier.

[23] = Plasmodium falciparum, DD2, Dd2, Supplementary Table 2
[24] = Plasmodium falciparum, DD2, Dd2 parental, Supplementary Table 13

CCN(CC)Cc1cc(Nc2ccnc3cc(Cl)ccc23)ccc1O [Amodiaquine]
IC50 [1, 23]: 0.00983 ± 0.0004 µM | IC50 ([2]; Plasmodium falciparum, DD2): 0.0107 ± 0.002 µM | IC50 ([3]; Plasmodium falciparum, DD2): 0.00896 ± 0.0008 µM | IC50 ([4]; Plasmodium falciparum, DD2): 0.00886 ± 0.001 µM | IC50 ([5]; Plasmodium falciparum, DD2): 0.0099 ± 0.003 µM

C[C@@H]1CC[C@H]2[C@@H](C)C(=O)O[C@@H]3O[C@@]4(C)CC[C@@H]1[C@]32OO4 [Artemisinin]
IC50 [6]: 0.0013 ± 0.0001 µM | IC50 [7]: 0.0103 ± 0.002 µM | IC50 [8]: 0.0065 ± 0.002 µM | IC50 [9]: 0.007 ± 0.004 µM | IC50 [10]: 0.0166 ± 0.005 µM | IC50 [11]: 0.0065 ± 0.001 µM

C[C@H]1[C@H](OC(=O)CCC(=O)O)O[C@@H]2O[C@@]3(C)CC[C@H]4[C@H](C)CC[C@@H]1[C@@]24OO3 [Artesunate]
IC50 [1, 23]: 0.00151 ± 0.0002 µM | IC50 [1, 24]: 0.0026 ± 0.0013 µM | IC50 ([2]; Plasmodium falciparum, DD2): 0.00181 ± 0.0003 µM | IC50 ([3]; Plasmodium falciparum, DD2): 0.00129 ± 0.0002 µM | IC50 ([4]; Plasmodium falciparum, DD2): 0.00184 ± 0.0003 µM | IC50 ([5]; Plasmodium falciparum, DD2): 0.00126 ± 0.0004 µM | IC50 [12]: 0.0016 ± 0.0002 µM | IC50 [13]: 0.0012 ± 0.0001 µM | IC50 [14]: 0.0014 ± 0.0001 µM | IC50 [15]: 0.0016 ± 0.0009 µM | IC50 [16]: 0.0016 µM

O=C1C(O)=C([C@H]2CC[C@H](c3ccc(Cl)cc3)CC2)C(=O)c2ccccc21 [Atovaquone]
IC50 [6]: 0.0023 ± 0.0007 µM | IC50 [7]: 0.002 ± 2e-05 µM | IC50 [8]: 0.0023 ± 0.0008 µM | IC50 [10]: > 2 µM

CCN(CC)CCCC(C)Nc1ccnc2cc(Cl)ccc12 (stereo not shown) [Chloroquine]
IC50 [10]: 0.0118 ± 0.0045 µM

Cc1cc(Nc2ccc(S(F)(F)(F)(F)F)cc2)n2nc(C(C)(F)F)nc2n1 [DSM265, reference compound]
IC50 [17]: 0.048 µM

COc1cc2[nH]c(C)c(-c3ccc(Oc4ccc(OC(F)(F)F)cc4)cc3)c(=O)c2cc1Cl [ELQ-300, reference compound]
IC50 ([18]; Dd2, [3H]-hypoxanthine, read-out: IC50): 0.02 µM | IC50 [19]: 0.125 µM

COC1=C2C[C@@H](C)C[C@H](OC)[C@H](O)[C@@H](C)/C=C(\C)[C@H](OC(N)=O)[C@@H](OC)/C=C\C=C(/C)C(=O)NC(=CC1=O)C2=O [Geldanamycin]
IC50 [1, 23]: 0.176 ± 0.03 µM | IC50 ([2]; Plasmodium falciparum, DD2): 0.257 ± 0.04 µM | IC50 ([4]; Plasmodium falciparum, DD2): 0.204 ± 0.02 µM | IC50 ([5]; Plasmodium falciparum, DD2): 0.169 ± 0.04 µM

Cc1nc2c(C#N)cccc2n1-c1ccc(C(=O)NC2CC2)s1 [Genz-669178]
IC50 ([1]; Dd2, Supplementary Table 2, read-out: IC50): 0.00579 ± 0.001 µM | IC50 ([2]; Dd2-DHODH, mean ± SD, read-out: IC50): 0.0768 ± 0.01 µM | IC50 ([3]; Dd2-HSP90, mean ± SD, read-out: IC50): 0.0162 ± 0.002 µM | IC50 ([4]; Dd2-PfCRT, mean ± SD, read-out: IC50): 0.00507 ± 0.004 µM | IC50 ([5]; Dd2-CYTbQi, mean ± SD, read-out: IC50): 0.00994 ± 0.0009 µM

CCCCN(CCCC)CC(O)c1cc(Cl)cc2c1-c1ccc(Cl)cc1/C2=C/c1ccc(Cl)cc1 (stereo not shown) [Lumefantrine]
IC50 [1, 24]: 0.0156 ± 0.0048 µM | IC50 [12]: 0.0068 ± 0.002 µM | IC50 [13]: 0.0057 ± 0.001 µM | IC50 [14]: 0.006 ± 0.0017 µM | IC50 [15]: 0.0064 ± 0.0024 µM | IC50 [16]: 0.0051 µM

OC(c1cc(C(F)(F)F)nc2c(C(F)(F)F)cccc12)C1CCCCN1 (stereo not shown) [Mefloquine]
IC50 [1, 24]: 0.0301 ± 0.0072 µM | IC50 [12]: 0.0117 ± 0.0026 µM | IC50 [13]: 0.0121 µM | IC50 [14]: 0.012 µM | IC50 [15]: 0.0117 µM | IC50 [16]: 0.0107 µM

C[C@H]1Cc2c([nH]c3cc(Cl)c(F)cc23)[C@@]2(N1)C(=O)Nc1ccc(Cl)cc12 [NITD609, reference compound]
IC50 ([18]; Plasmodium falciparum, DD2): 0.0006 µM | IC50 [20]: 0.0017 µM

CCc1nc(N)nc(N)c1-c1ccc(Cl)cc1 [Pyrimethamine]
IC50 [6]: 10 ± 1.26 µM | IC50 [7]: 13.8 ± 8.62 µM | IC50 [8]: 8.56 ± 1.98 µM | IC50 [9]: 0.0283 ± 0.011 µM | IC50 [10]: 0.0108 ± 0.004 µM | IC50 [11]: 15.4 ± 2.83 µM

CNc1nc(Nc2ccc(OCC(F)(F)F)c(C)n2)ncc1N1CCN[C@H](C)C1 [compound 6]
IC50 [1, 23]: 0.0295 ± 0.003 µM | IC50 [1, 24]: 0.0387 ± 0.0011 µM | IC50 ([2]; Plasmodium falciparum, DD2): 0.0232 ± 0.005 µM | IC50 ([3]; Plasmodium falciparum, DD2): 0.0279 ± 0.007 µM | IC50 ([4]; Plasmodium falciparum, DD2): 0.0189 ± 0.001 µM | IC50 ([5]; Plasmodium falciparum, DD2): 0.0257 ± 0.005 µM | IC50 [12]: 0.103 µM | increase in IC50 compared with the parental Dd2 line ([12]; compound 6-resistant Dd2-6R clones (five clones)): 3-6 fold and 3 fold | IC50 [13]: 0.0963 µM | IC50 [14]: 0.0957 µM | IC50 [15]: 0.0989 µM | IC50 [16]: 0.112 µM

Cc1nc(Nc2ncc(N3CCN[C@H](C)C3)c(Nc3cc(C)n(C)n3)n2)ccc1F [compound 7, (R)-N4-(1,5-dimethyl-1H-pyrazol-3-yl)-N2-(5-fluoro-6-methylpyridin-2-yl)-5-(3-methylpiperazin-1-yl)pyrimidine-2,4-diamine]
IC50 [21]: > 33 µM | IC50 [22]: 66 µM
